Experimental data as given in patent publication US7402314B2, “In vivo activation of tumor-specific cytotoxic T cells” (The Scripps Research Institute, priority 1995, dated 2008).
Where “and” joins values, the source holds several entries; their conditions need not be identical. Identical values can stand only once.

Columns and labels:
A2.1/K^b-Tg mice = experiment: Peptide priming of A2.1/K^b-Tg mice, lytic activity of peptide-specific CTL; type: in vivo; design: Lytic Activity by Peptide-Specific CTL After Priming of A2.1/K^b-Tg Mice [Specific ^51Cr release (%)]: concentration or dose not given beside the values; settings: for Lytic Activity by Peptide-Specific CTL After Priming of A2.1/K^b-Tg Mice [Specific ^51Cr release (%)]: E:T ratio of 60:1, peptide-pulsed T2A2/K^b targets, highest of at least three individual mice; for A2.1/K^b-restricted peptide-specific CTL response of A2.1/K^b-Tg mice (in words): mouse, in vivo
HLA-A2.1 = HLA-A2.1 (Homo sapiens, UniProt P04439, D140Y/D185E/D98H/E176V/E277Q/G131W/G231S/I119V/I121R/I166T/I218V/L300P/L318F/N151K/N90K/P208A/P217A/Q86G/Q94H/R138H/R169H/T345S); experiment: Competition assay of peptide binding to HLA-A2.1 (inhibition of M1 58-66 binding, clone 12 lysis of EA2 targets)
Saos-2/175 = experiment: 5-hour ^51Cr release assay, endogenously synthesized p53 epitopes (Example 4); type: cell-based, human; settings: relative to p53-deficient Saos-2
CASKI = experiment: Cytotoxicity assay, killing of tumors (Table 7); type: cell-based, human
Procedure: (§1) One hundred and six (106) target cells were incubated at 37° C. with […] of sodium ^51Cr chromate for 90 minutes in the presence or absence of specific peptide. Cells were washed three times and resuspended in 5% RPMI. For the assay, 104 ^51Cr-labeled target cells were incubated with different concentrations of effector cells in a final volume of […] in U-bottomed 96-well plates. Supernatants were removed after 4-7 hrs at 37° C., and the percent specific lysis was determined by the following formula: […]
(§2) Tumor cells were preincubated for 24 hours prior to the assay in media supplemented with γ-interferon (γ-IFN, 20 ng/ml) plus tumor necrosis factor-α (TNF-α, 3 ng/ml). It is known that such pretreatment of tumor cells increases the expression of MHC I and adhesion molecules such as ICAM I on the surface of the cell thus enhancing their sensitivity to lysis by CTL. (See, e.g., Fisk, et al., Lympho. & Cylokine Res. 13: 125-131 (1994); Fady, et al., Cancer Immunol. Immunother. 37: 329-336 (1993).)

Hep-G2 = experiment: Cytotoxicity assay, killing of tumors (Table 7); type: cell-based, human
Procedure: as §1, §2

JY = experiment: Cytotoxicity assay, killing of tumors (Table 7); type: cell-based, human
Procedure: as §1, §2

LG-2 = experiment: Cytotoxicity assay, killing of tumors (Table 7); type: cell-based, human
Procedure: as §1, §2

MALME-3M = experiment: Cytotoxicity assay, killing of tumors (Table 7); type: cell-based, human
Procedure: as §1, §2

MCF-7 = experiment: Cytotoxicity assay, killing of tumors (Table 7); type: cell-based, human
Procedure: as §1, §2

MDA.MB435 = experiment: Cytotoxicity assay, killing of tumors (Table 7); type: cell-based, human
Procedure: as §1, §2

OVCAR-5 = experiment: Cytotoxicity assay, killing of tumors (Table 7); type: cell-based, human
Procedure: as §1, §2

SAOS.175 = experiment: Cytotoxicity assay, killing of tumors (Table 7); type: cell-based, human
Procedure: as §1, §2

SKMEL-5 = experiment: Cytotoxicity assay, killing of tumors (Table 7); type: cell-based, human
Procedure: as §1, §2

ST486 = experiment: Cytotoxicity assay, killing of tumors (Table 7); type: cell-based, human
Procedure: as §1, §2

SV80 = experiment: Cytotoxicity assay, killing of tumors (Table 7); type: cell-based, human
Procedure: as §1, §2

SW480 = experiment: Cytotoxicity assay, killing of tumors (Table 7); type: cell-based, human
Procedure: as §1, §2

T98G = experiment: Cytotoxicity assay, killing of tumors (Table 7); type: cell-based, human
Procedure: as §1, §2

U2-OS = experiment: Cytotoxicity assay, killing of tumors (Table 7); type: cell-based, human
Procedure: as §1, §2

U87G = experiment: Cytotoxicity assay, killing of tumors (Table 7); type: cell-based, human
Procedure: as §1, §2

Row | Sequence | Lytic Activity by Peptide-Specific CTL After Priming of A2.1/K^b-Tg Mice [Specific ^51Cr release (%)] (A2.1/K^b-Tg mice) [%] | A2.1/K^b-restricted peptide-specific CTL response of A2.1/K^b-Tg mice (in words) (A2.1/K^b-Tg mice) | further results
1 | NTFRHSVVV [hu-wt-p53 210-218] | 6 |  | 
2 | LMLSPDDIEQ [hu-wt-p53 43-52] | 3 |  | 
3 | LLGRDSFEV [mur-wt-p53 261-269, reference compound] | 10 | No significant response | A2.1-binding activity / affinity for the presenting MHC class I molecule (in words) (HLA-A2.1): highest A2.1-binding activity of all p53 peptides tested
4 | NLLGRNSFEV [hu-wt-p53 263-272] | 3 |  | 
5 | VLSPLPSQA [hu-wt-p53 31-39] | 3 |  | 
6 | AAPTPAAPA [hu-wt-p53 78-86] | 0 |  | 
7 | LLPENNVLSPL [hu-wt-p53 25-35] | 47 | detectable | A2.1-binding activity / affinity for the presenting MHC class I molecule (in words) (HLA-A2.1): high affinity; recognition of Saos-2/175 by CTL from A2.1/K^b-Tg mice specific for the peptide (endogenous processing and presentation) (Saos-2/175): did not lyse Saos-2/175
8 | RMPEAAPPV [hu-wt-p53 65-73] | 85 | detectable | A2.1-binding activity / affinity for the presenting MHC class I molecule (in words) (HLA-A2.1): high affinity; recognition of Saos-2/175 by CTL from A2.1/K^b-Tg mice specific for the peptide (endogenous processing and presentation) (Saos-2/175): did not lyse Saos-2/175
9 | AAPPVAPAPAA [hu-wt-p53 69-79] | 0 |  | 
10 | GLAPPQHLI [hu-wt-p53 187-195] | 1 | lack of CTL responsiveness | A2.1-binding activity / affinity for the presenting MHC class I molecule (in words) (HLA-A2.1): high
11 | SVTCTYSPA [hu-wt-p53 121-129] |  |  | A2.1-binding: inhibition of A2.1-binding of M1 (58-66) (%) (HLA-A2.1): 8%
12 | VLSPLPSQAM [hu-wt-p53 31-40] | 0 |  | 
13 | LLPENNVLS [hu-wt-p53 25-33] | 3 |  | 
14 | VAPAPAAPT [hu-wt-p53 73-81] | 0 |  | 
15 | AAPPVAPAPA [hu-wt-p53 69-78] | 0 |  | 
16 | AAPPVAPA [hu-wt-p53 69-76] | 0 |  | 
17 | ITLEDSSGNL [hu-wt-p53 255-264] | 3 | lack of CTL responsiveness | A2.1-binding activity / affinity for the presenting MHC class I molecule (in words) (HLA-A2.1): intermediate
18 | LLGRNSFEV | 94 | detectable | 
19 | ALNKMFCQL | 0 |  | 
20 | KLVGKLNWA [HIV-9K, reference compound] |  |  | Killing of Tumors Expressing Her-2/neu (percent specific lysis) (CASKI): 8% and 11%; Killing of Tumors Expressing Her-2/neu (percent specific lysis) (Hep-G2): 1% and 8%; Killing of Tumors Expressing Her-2/neu (percent specific lysis) (JY): 2% and 1%; Killing of Tumors Expressing Her-2/neu (percent specific lysis) (LG-2): 1%; Killing of Tumors Expressing Her-2/neu (percent specific lysis) (MALME-3M): 2% and 1%; Killing of Tumors Expressing Her-2/neu (percent specific lysis) (MCF-7): 3% and 7%; Killing of Tumors Expressing Her-2/neu (percent specific lysis) (MDA.MB435): 4% and 3%; Killing of Tumors Expressing Her-2/neu (percent specific lysis) (OVCAR-5): 10% and 12%; Killing of Tumors Expressing Her-2/neu (percent specific lysis) (SAOS.175): 18% and 11%; Killing of Tumors Expressing Her-2/neu (percent specific lysis) (SKMEL-5): 5% and 4%; Killing of Tumors Expressing Her-2/neu (percent specific lysis) (ST486): 1%; Killing of Tumors Expressing Her-2/neu (percent specific lysis) (SV80): 2%; Killing of Tumors Expressing Her-2/neu (percent specific lysis) (SW480): 1% and 4%; Killing of Tumors Expressing Her-2/neu (percent specific lysis) (T98G): 9% and 13%; Killing of Tumors Expressing Her-2/neu (percent specific lysis) (U2-OS): 18% and 24%; Killing of Tumors Expressing Her-2/neu (percent specific lysis) (U87G): 5% and 1%
21 | ILKEPVHGV [HIV-1 RT 476-484, reference compound] |  | could mount an A2.1/K^b-restricted CTL response | 
22 | DLMLSPDDI [hu-wt-p53 42-50] | 0 |  | 
23 | PLDGEYFTL [hu-wt-p53 322-330] | 0 | lack of CTL responsiveness | A2.1-binding activity / affinity for the presenting MHC class I molecule (in words) (HLA-A2.1): intermediate
